Results: patent US6407288B1, “Naphthylsalicylanilides as antimicrobial and antiinflammatory agents” (The Research Foundation of State University of New York, priority 2000, dated 2002)
Values after ≈ are worked out from the molar mass of the structure shown.

System: A. viscosus
Assay: MIC microdilution, gram positive
Format: cell-based, Actinomyces viscosus
Details: Actinomyces viscosus; Table 2, Gram Positive
In short: (§1)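 Modified NCCLS broth microdilution: aerobes in full-strength BHI, anaerobes in half-strength BHI with yeast extract, hemin and menadione, each well given 10 µL of a ~1×10^8 CFU/mL inoculum. Drugs ranged 50–0.05 µg/assay, run in duplicate, incubated 24–48 h, anaerobically under 5% CO2/10% H2/N2 where needed. MIC was the lowest concentration with no visible growth.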

SMILES | MIC [µg/mL]
CCCCc1ccc(C(=O)c2ccc(O)c(C(=O)Nc3cccc(C(F)(F)F)c3)c2)cc1 [BBAmF, reference compound] | > 50
N#Cc1cccc(NC(=O)c2cc(C(=O)c3ccc(-c4ccccc4)cc3)ccc2O)c1 [BPAmC, reference compound] | > 50

System: M. luteus
Assay: MIC microdilution, gram positive
Format: cell-based, Micrococcus luteus
Details: Micrococcus luteus; Table 2, Gram Positive
Procedure: The MIC's for the compounds were determined by a modified microdilution tube dilution method described in “Methods for Dilution Antimicrobial Susceptibility Tests for Bacteria that Grow Aerobically” (National Committee for Clinical Laboratory Standards Approved Standards, 1997, NCCLS document M7-A4). In general the modifications were made because of the unique growth requirements for the fastidious oral organisms and for those bacteria that require anaerobic conditions. Reference is also made to “Methods for Antimicrobial Susceptibility of Anaerobic Bacteria” (National Committee for Clinical Laboratory Standards Approved Standards, 1997, NCCLS document M11-A4). Briefly, the methods were as follows. Cultures were grown for 18-24hrs (aerobic bacteria) or 48-72 hrs (anaerobic bacteria) in the appropriate medium. For aerobic bacteria full strength brain heart infusion medium (BHI, Difco) was used. For anaerobic bacteria, half strength BHI (18.5 g/L) was supplemented by adding yeast extract (10 g/L), hemin (0.29 mL of a stock solution containing 0.1 g/200 mL dH2O) and menadione (15 mL of a stock solution containing 0.15 mL in 30 mL 95% EtOH) was used. Initial cultures were diluted to approximately 1×10^8 CFU/mL for use as an inoculum. Each assay received 10 μL of the inoculum. The drugs were prepared from a stock solution contained in dimethyl sulfoxide (DMSO) and diluted into the culture medium. Final concentrations of the drugs ranged from 50 to 0.05 μg/assay. The tests were run in duplicate and were incubated appropriately with regard to oxygen requirements for 24 to 48 hrs as required. Anaerobic incubation was an atmosphere of 5% CO2, 10% H2, with the balance N2. The lowest concentration of an antimicrobial agent at which no visible growth is noted was referred to as the MIC.

SMILES | MIC [µg/mL]
CCCCc1ccc(C(=O)c2ccc(O)c(C(=O)Nc3cccc(C(F)(F)F)c3)c2)cc1 [BBAmF, reference compound] | 3.1 (≈ 7.02 µM)
N#Cc1cccc(NC(=O)c2cc(C(=O)c3ccc(-c4ccccc4)cc3)ccc2O)c1 [BPAmC, reference compound] | 3.1 (≈ 7.41 µM)

System: Fuso. 25586
Assay: MIC microdilution, gram negative
Format: cell-based, Fusobacterium nucleatum
Details: Fusobacterium nucleatum; Table 3, Gram Negative
Procedure: (§2) The MIC's for the compounds were determined by a modified microdilution tube dilution method described in “Methods for Dilution Antimicrobial Susceptibility Tests for Bacteria that Grow Aerobically” (National Committee for Clinical Laboratory Standards Approved Standards, 1997, NCCLS document M7-A4). In general the modifications were made because of the unique growth requirements for the fastidious oral organisms and for those bacteria that require anaerobic conditions. Reference is also made to “Methods for Antimicrobial Susceptibility of Anaerobic Bacteria” (National Committee for Clinical Laboratory Standards Approved Standards, 1997, NCCLS document M11-A4). Briefly, the methods were as follows. Cultures were grown for 18-24hrs (aerobic bacteria) or 48-72 hrs (anaerobic bacteria) in the appropriate medium. For aerobic bacteria full strength brain heart infusion medium (BHI, Difco) was used. For anaerobic bacteria, half strength BHI (18.5 g/L) was supplemented by adding yeast extract (10 g/L), hemin (0.29 mL of a stock solution containing 0.1 g/200 mL dH2O) and menadione (15 mL of a stock solution containing 0.15 mL in 30 mL 95% EtOH) was used. Initial cultures were diluted to approximately 1×10^8 CFU/mL for use as an inoculum. Each assay received 10 μL of the inoculum. The drugs were prepared from a stock solution contained in dimethyl sulfoxide (DMSO) and diluted into the culture medium. Final concentrations of the drugs ranged from 50 to 0.05 μg/assay. The tests were run in duplicate and were incubated appropriately with regard to oxygen requirements for 24 to 48 hrs as required. Anaerobic incubation was an atmosphere of 5% CO2, 10% H2, with the balance N2. The lowest concentration of an antimicrobial agent at which no visible growth is noted was referred to as the MIC. […] The method used was the same as described in Example 1.

SMILES | MIC [µg/mL]
CCCCc1ccc(C(=O)c2ccc(O)c(C(=O)Nc3cccc(C(F)(F)F)c3)c2)cc1 [BBAmF, reference compound] | > 50
N#Cc1cccc(NC(=O)c2cc(C(=O)c3ccc(-c4ccccc4)cc3)ccc2O)c1 [BPAmC, reference compound] | > 50

Same assay, conditions: Table 3 printed a second time, Gram Negative

SMILES | MIC Fuso. 25586
CCCCc1ccc(C(=O)c2ccc(O)c(C(=O)Nc3cccc(C(F)(F)F)c3)c2)cc1 [BBAmF, reference compound] | NE (NE indicates that the drug was not effective at a concentration >50 micrograms/ml)
N#Cc1cccc(NC(=O)c2cc(C(=O)c3ccc(-c4ccccc4)cc3)ccc2O)c1 [BPAmC, reference compound] | NE (NE indicates that the drug was not effective at a concentration >50 micrograms/ml)

System: S.salivarius
Assay: MIC microdilution, gram positive
Format: cell-based, Streptococcus salivarius
Details: Streptococcus salivarius; Table 1, Gram Positive
In short: as §1

SMILES | MIC [µg/mL]
CCCCc1ccc(C(=O)c2ccc(O)c(C(=O)Nc3cccc(C(F)(F)F)c3)c2)cc1 [BBAmF, reference compound] | > 50
N#Cc1cccc(NC(=O)c2cc(C(=O)c3ccc(-c4ccccc4)cc3)ccc2O)c1 [BPAmC, reference compound] | > 50

System: B. fragilis
Assay: MIC microdilution, gram negative
Format: cell-based, Bacteroides fraglis
Details: Bacteroides fragilis; Table 3, Gram Negative
Procedure: as §2

SMILES | MIC [µg/mL]
CCCCc1ccc(C(=O)c2ccc(O)c(C(=O)Nc3cccc(C(F)(F)F)c3)c2)cc1 [BBAmF, reference compound] | > 50
N#Cc1cccc(NC(=O)c2cc(C(=O)c3ccc(-c4ccccc4)cc3)ccc2O)c1 [BPAmC, reference compound] | 50 (≈ 119 µM)

Same assay, conditions: Table 3 printed a second time, Gram Negative

SMILES | MIC B. fragilis
CCCCc1ccc(C(=O)c2ccc(O)c(C(=O)Nc3cccc(C(F)(F)F)c3)c2)cc1 [BBAmF, reference compound] | NE (NE indicates that the drug was not effective at a concentration >50 micrograms/ml)
N#Cc1cccc(NC(=O)c2cc(C(=O)c3ccc(-c4ccccc4)cc3)ccc2O)c1 [BPAmC, reference compound] | 50 micrograms/ml

System: P. ging 381
Assay: MIC microdilution, gram negative
Format: cell-based, Porphyromonas gingivalis
Details: Porphyromonas gingivalis, 381; Table 3, Gram Negative
In short: (§3)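 Modified NCCLS broth microdilution; anaerobes grown 48-72 hrs in half-strength BHI with yeast extract, hemin and menadione, aerobes in full-strength BHI, inoculum ~1×10^8 CFU/mL (10 μL/assay). Drugs from DMSO stock, final 50 to 0.05 μg/assay, duplicate, 24 to 48 hrs (anaerobic: 5% CO2, 10% H2, N2); MIC = lowest concentration without visible growth.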

SMILES | MIC [µg/mL]
CCCCc1ccc(C(=O)c2ccc(O)c(C(=O)Nc3cccc(C(F)(F)F)c3)c2)cc1 [BBAmF, reference compound] | < 0.4
N#Cc1cccc(NC(=O)c2cc(C(=O)c3ccc(-c4ccccc4)cc3)ccc2O)c1 [BPAmC, reference compound] | < 0.4

Same assay, conditions: Table 3 printed a second time, Gram Negative

SMILES | MIC P. ging 381 [micrograms/ml]
CCCCc1ccc(C(=O)c2ccc(O)c(C(=O)Nc3cccc(C(F)(F)F)c3)c2)cc1 [BBAmF, reference compound] | <0.4
N#Cc1cccc(NC(=O)c2cc(C(=O)c3ccc(-c4ccccc4)cc3)ccc2O)c1 [BPAmC, reference compound] | <0.4

System: Pg 53977
Assay: MIC microdilution, gram negative
Format: cell-based, Porphyromonas gingivalis
Details: Porphyromonas gingivalis, 53977; Table 3, Gram Negative
In short: as §3

SMILES | MIC [µg/mL]
CCCCc1ccc(C(=O)c2ccc(O)c(C(=O)Nc3cccc(C(F)(F)F)c3)c2)cc1 [BBAmF, reference compound] | < 0.4
N#Cc1cccc(NC(=O)c2cc(C(=O)c3ccc(-c4ccccc4)cc3)ccc2O)c1 [BPAmC, reference compound] | < 0.4

Same assay, conditions: Table 3 printed a second time, Gram Negative

SMILES | MIC Pg 53977 [micrograms/ml]
CCCCc1ccc(C(=O)c2ccc(O)c(C(=O)Nc3cccc(C(F)(F)F)c3)c2)cc1 [BBAmF, reference compound] | <0.4
N#Cc1cccc(NC(=O)c2cc(C(=O)c3ccc(-c4ccccc4)cc3)ccc2O)c1 [BPAmC, reference compound] | <0.4

System: S. species R
Assay: Staphylococcus MIC
Format: cell-based, staphylococcus species R
Details: Staphylococcus; second Table 5 (Example 5); strain 00-045-1209
Procedure: The MIC's for the compounds were determined by a modified microdilution tube dilution method described in “Methods for Dilution Antimicrobial Susceptibility Tests for Bacteria that Grow Aerobically” (National Committee for Clinical Laboratory Standards Approved Standards, 1997, NCCLS document M7-A4). In general the modifications were made because of the unique growth requirements for the fastidious oral organisms and for those bacteria that require anaerobic conditions. Reference is also made to “Methods for Antimicrobial Susceptibility of Anaerobic Bacteria” (National Committee for Clinical Laboratory Standards Approved Standards, 1997, NCCLS document M11-A4).
Briefly, the methods were as follows. Cultures were grown for 18-24hrs (aerobic bacteria) or 48-72 hrs (anaerobic bacteria) in the appropriate medium. For aerobic bacteria full strength brain heart infusion medium (BHI, Difco) was used. For anaerobic bacteria, half strength BHI (18.5 g/L) was supplemented by adding yeast extract (10 g/L), hemin (0.29 mL of a stock solution containing 0.1 g/200 mL dH2O) and menadione (15 mL of a stock solution containing 0.15 mL in 30 mL 95% EtOH) was used. Initial cultures were diluted to approximately 1×10^8 CFU/mL for use as an inoculum. Each assay received 10 μL of the inoculum. The drugs were prepared from a stock solution contained in dimethyl sulfoxide (DMSO) and diluted into the culture medium. Final concentrations of the drugs ranged from 50 to 0.05 μg/assay. The tests were run in duplicate and were incubated appropriately with regard to oxygen requirements for 24 to 48 hrs as required. Anaerobic incubation was an atmosphere of 5% CO2, 10% H2, with the balance N2. The lowest concentration of an antimicrobial agent at which no visible growth is noted was referred to as the MIC.
This embodiment describes the sensitivity of various staphylococcus strains to the compounds of the present invention. The staphylococcus species R is a strain 00-045-1209 from the Children's Hospital in Buffalo. It was isolated from the peritoneal cavity (fluid culture) of an individual. It was coagulase negative. The sensitivity of this strain was tested agaisnt several known antibiotics.

SMILES | MIC [µg/mL]
CCCCc1ccc(C(=O)c2ccc(O)c(C(=O)Nc3cccc(C(F)(F)F)c3)c2)cc1 [BBAmF, reference compound] | > 50
N#Cc1cccc(NC(=O)c2cc(C(=O)c3ccc(-c4ccccc4)cc3)ccc2O)c1 [BPAmC, reference compound] | > 50

System: S. mutans
Assay: MIC microdilution, gram positive
Format: cell-based, Streptococcus mutans
Details: Streptococcus mutans; Table 1, Gram Positive
In short: as §1

SMILES | MIC [µg/mL]
CCCCc1ccc(C(=O)c2ccc(O)c(C(=O)Nc3cccc(C(F)(F)F)c3)c2)cc1 [BBAmF, reference compound] | > 50
N#Cc1cccc(NC(=O)c2cc(C(=O)c3ccc(-c4ccccc4)cc3)ccc2O)c1 [BPAmC, reference compound] | > 50
